± gives the expanded uncertainty stated by the source.
What was measured:
[1] = xn = mol fraction of the nth substance listed; conditions: 101 kPa, Liquid; for viscosity: Capillary tube (Ostwald / Ubbelohde) method; for mass density: Vibrating tube method
[2] = refractive index (Na D-line) (dimensionless); xn = mol fraction of the nth substance listed; conditions: 101 kPa, Liquid, Standard Abbe refractometry

CC#N [acetonitrile] + CC(C)O
Conditions	mass density, [1] [kg/m3]	refractive index, [2]	viscosity, [1] [mPa·s]
293.15 K, x1 = 0.0496	784.97 ± 0.31	1.3757 ± 0.0021	1.972 ± 0.021
293.15 K, x1 = 0.0906	784.72 ± 0.31	1.3751 ± 0.0021	1.688 ± 0.018
293.15 K, x1 = 0.1529	784.31 ± 0.31	1.3737 ± 0.0021	1.368 ± 0.015
293.15 K, x1 = 0.2022	783.9 ± 0.31	1.3726 ± 0.0021	1.176 ± 0.013
293.15 K, x1 = 0.2783	783.36 ± 0.31	1.3705 ± 0.0021	0.9608 ± 0.01
293.15 K, x1 = 0.3678	782.71 ± 0.31	1.3677 ± 0.002	0.7912 ± 0.0084
293.15 K, x1 = 0.4768	782.02 ± 0.31	1.364 ± 0.002	0.6502 ± 0.0068
293.15 K, x1 = 0.6132	781.53 ± 0.31	1.359 ± 0.002	0.51 ± 0.0057
293.15 K, x1 = 0.7714	781.13 ± 0.31	1.3528 ± 0.002	0.4156 ± 0.0048
293.15 K, x1 = 0.9207	781.26 ± 0.31	1.3469 ± 0.0021	0.3716 ± 0.0042
293.15 K, x1 = 1	782.04 ± 0.31	1.3436 ± 0.0021	0.3542 ± 0.004
298.15 K, x1 = 0.0496	780.76 ± 0.31	1.3733 ± 0.0021	1.691 ± 0.018
298.15 K, x1 = 0.0906	780.3 ± 0.3	1.3724 ± 0.0021	1.461 ± 0.015
298.15 K, x1 = 0.1529	779.7 ± 0.3	1.3713 ± 0.0021	1.207 ± 0.013
298.15 K, x1 = 0.2022	779.7 ± 0.3	1.3702 ± 0.0021	1.044 ± 0.011
298.15 K, x1 = 0.2783	779.2 ± 0.3	1.3687 ± 0.0021	0.8677 ± 0.0089
298.15 K, x1 = 0.3678	777.65 ± 0.31	1.3667 ± 0.0021	0.7248 ± 0.0075
298.15 K, x1 = 0.4768	778.79 ± 0.31	1.3635 ± 0.0021	0.6062 ± 0.0064
298.15 K, x1 = 0.6132	776.2 ± 0.31	1.3591 ± 0.0021	0.4735 ± 0.0051
298.15 K, x1 = 0.7714	775.79 ± 0.31	1.3528 ± 0.002	0.384 ± 0.0043
298.15 K, x1 = 0.9207	775.95 ± 0.31	1.3452 ± 0.0021	0.3499 ± 0.0039
298.15 K, x1 = 1	776.64 ± 0.31	1.3411 ± 0.0021	0.3369 ± 0.0038
303.15 K, x1 = 0.0496	776.32 ± 0.31	1.3715 ± 0.0021	1.474 ± 0.016
303.15 K, x1 = 0.0906	775.84 ± 0.31	1.3707 ± 0.0021	1.288 ± 0.013
303.15 K, x1 = 0.1529	775.13 ± 0.31	1.3694 ± 0.0021	1.069 ± 0.011
303.15 K, x1 = 0.2022	774.54 ± 0.31	1.3684 ± 0.0021	0.9367 ± 0.0097
303.15 K, x1 = 0.2783	773.97 ± 0.31	1.3666 ± 0.0021	0.7975 ± 0.0083
303.15 K, x1 = 0.3678	772.88 ± 0.31	1.3641 ± 0.0021	0.6615 ± 0.007
303.15 K, x1 = 0.4768	771.84 ± 0.31	1.3608 ± 0.0021	0.5492 ± 0.0059
303.15 K, x1 = 0.6132	771.13 ± 0.31	1.3561 ± 0.0021	0.4429 ± 0.0048
303.15 K, x1 = 0.7714	770.52 ± 0.31	1.35 ± 0.0021	0.3617 ± 0.004
303.15 K, x1 = 0.9207	770.59 ± 0.31	1.3433 ± 0.0021	0.3311 ± 0.0038
303.15 K, x1 = 1	771.21 ± 0.31	1.339 ± 0.0021	0.3254 ± 0.0037
308.15 K, x1 = 0.0496	771.86 ± 0.31	1.3694 ± 0.0021	1.296 ± 0.013
308.15 K, x1 = 0.0906	771.31 ± 0.31	1.3687 ± 0.0021	1.15 ± 0.012
308.15 K, x1 = 0.1529	770.57 ± 0.31	1.3679 ± 0.0021	0.9576 ± 0.0098
308.15 K, x1 = 0.2022	769.92 ± 0.31	1.367 ± 0.002	0.846 ± 0.0087
308.15 K, x1 = 0.2783	768.98 ± 0.31	1.3657 ± 0.002	0.7168 ± 0.0075
308.15 K, x1 = 0.3678	767.8 ± 0.31	1.3637 ± 0.002	0.6057 ± 0.0063
308.15 K, x1 = 0.4768	766.44 ± 0.31	1.3605 ± 0.002	0.5051 ± 0.0054
308.15 K, x1 = 0.6132	765.75 ± 0.31	1.3557 ± 0.002	0.4111 ± 0.0045
308.15 K, x1 = 0.7714	765.26 ± 0.31	1.3491 ± 0.002	0.3442 ± 0.0038
308.15 K, x1 = 0.9207	765.18 ± 0.31	1.3417 ± 0.0021	0.3202 ± 0.0036
308.15 K, x1 = 1	765.75 ± 0.31	1.3371 ± 0.0021	0.3082 ± 0.0036

CCC(C)O (centres undefined) [butan-2-ol] + CC#N
Conditions	mass density, [1] [kg/m3]	refractive index, [2]	viscosity, [1] [mPa·s]
293.15 K, x2 = 0	806.57 ± 0.31	1.3966 ± 0.0021	3.912 ± 0.046
293.15 K, x2 = 0.0844	804.53 ± 0.31	1.3952 ± 0.0021	2.503 ± 0.031
293.15 K, x2 = 0.1644	802.5 ± 0.3	1.393 ± 0.0021	1.654 ± 0.019
293.15 K, x2 = 0.2516	800.41 ± 0.31	1.3899 ± 0.0021	1.376 ± 0.014
293.15 K, x2 = 0.3369	798.33 ± 0.31	1.386 ± 0.0021	1.089 ± 0.011
293.15 K, x2 = 0.4444	795.68 ± 0.31	1.3804 ± 0.0021	0.8564 ± 0.0088
293.15 K, x2 = 0.5382	793.35 ± 0.31	1.3751 ± 0.0021	0.6953 ± 0.0072
293.15 K, x2 = 0.6425	790.7 ± 0.3	1.3686 ± 0.002	0.5565 ± 0.0061
293.15 K, x2 = 0.761	788.1 ± 0.3	1.361 ± 0.002	0.4636 ± 0.0052
293.15 K, x2 = 0.8715	785.92 ± 0.31	1.3534 ± 0.002	0.3984 ± 0.0043
293.15 K, x2 = 0.9588	783.48 ± 0.31	1.3467 ± 0.0021	0.3663 ± 0.004
298.15 K, x2 = 0	802.56 ± 0.31	1.3946 ± 0.0021	3.132 ± 0.039
298.15 K, x2 = 0.0844	800.28 ± 0.31	1.3918 ± 0.0021	2.135 ± 0.024
298.15 K, x2 = 0.1644	798.07 ± 0.31	1.3893 ± 0.0021	1.574 ± 0.015
298.15 K, x2 = 0.2516	795.79 ± 0.31	1.3865 ± 0.0021	1.218 ± 0.013
298.15 K, x2 = 0.3369	793.63 ± 0.31	1.383 ± 0.0021	0.992 ± 0.01
298.15 K, x2 = 0.4444	790.96 ± 0.31	1.3782 ± 0.002	0.7937 ± 0.0082
298.15 K, x2 = 0.5382	788.5 ± 0.3	1.3734 ± 0.0021	0.6498 ± 0.0068
298.15 K, x2 = 0.6425	785.67 ± 0.31	1.3674 ± 0.0021	0.518 ± 0.0055
298.15 K, x2 = 0.761	782.65 ± 0.31	1.3597 ± 0.0021	0.4216 ± 0.0046
298.15 K, x2 = 0.8715	779.99 ± 0.31	1.3518 ± 0.0021	0.3868 ± 0.0042
298.15 K, x2 = 0.9588	777.71 ± 0.31	1.3448 ± 0.0021	0.3632 ± 0.004
303.15 K, x2 = 0	798.26 ± 0.31	1.3924 ± 0.0021	2.534 ± 0.029
303.15 K, x2 = 0.0844	795.95 ± 0.31	1.3902 ± 0.0021	1.794 ± 0.02
303.15 K, x2 = 0.1644	793.74 ± 0.31	1.3886 ± 0.0021	1.383 ± 0.015
303.15 K, x2 = 0.2516	791.38 ± 0.31	1.386 ± 0.0021	1.082 ± 0.011
303.15 K, x2 = 0.3369	789.07 ± 0.31	1.3829 ± 0.0021	0.8873 ± 0.0093
303.15 K, x2 = 0.4444	786.17 ± 0.31	1.3779 ± 0.0021	0.7129 ± 0.0075
303.15 K, x2 = 0.5382	783.62 ± 0.31	1.3722 ± 0.002	0.5936 ± 0.0063
303.15 K, x2 = 0.6425	780.73 ± 0.31	1.3656 ± 0.002	0.4865 ± 0.0052
303.15 K, x2 = 0.761	777.45 ± 0.31	1.3575 ± 0.002	0.4019 ± 0.0044
303.15 K, x2 = 0.8715	774.43 ± 0.31	1.3495 ± 0.002	0.3612 ± 0.0041
303.15 K, x2 = 0.9588	772.05 ± 0.31	1.3426 ± 0.002	0.3414 ± 0.0039
308.15 K, x2 = 0	793.96 ± 0.31	1.3905 ± 0.0021	2.172 ± 0.024
308.15 K, x2 = 0.0844	791.55 ± 0.31	1.3876 ± 0.0021	1.572 ± 0.015
308.15 K, x2 = 0.1644	789.27 ± 0.31	1.3853 ± 0.0021	1.213 ± 0.012
308.15 K, x2 = 0.2516	786.77 ± 0.31	1.3825 ± 0.0021	0.9642 ± 0.0098
308.15 K, x2 = 0.3369	784.37 ± 0.31	1.3799 ± 0.0021	0.8021 ± 0.0082
308.15 K, x2 = 0.4444	781.35 ± 0.31	1.3753 ± 0.0021	0.6524 ± 0.0068
308.15 K, x2 = 0.5382	778.69 ± 0.31	1.3713 ± 0.002	0.5479 ± 0.0058
308.15 K, x2 = 0.6425	775.68 ± 0.31	1.3659 ± 0.002	0.4533 ± 0.0048
308.15 K, x2 = 0.761	772.27 ± 0.31	1.3592 ± 0.002	0.379 ± 0.0041
308.15 K, x2 = 0.8715	768.99 ± 0.31	1.351 ± 0.002	0.3437 ± 0.0039
308.15 K, x2 = 0.9588	766.51 ± 0.31	1.3423 ± 0.002	0.3238 ± 0.0037
